From paper PMC6350621, “Small-molecules that covalently react with a human prolyl hydroxylase – towards activity modulation and substrate capture” (Chemical Communications (Cambridge, England), 2018)

Tests used:
Format in all cases: binding
PHD2_181–402 = target: T1, PHD2_181–402 (Homo sapiens, UniProt Q9GZT9); assay: Non-denaturing ESI-MS crosslinking, C-terminal truncated PHD2; conditions: equimolar Fe(II) and compound, 3 h, 37 °C, 200 V
T1 construct: C-terminal truncated PHD2 (PHD2_181–402); His6 (N, cleaved yes); made in house; host or cells: bacterial culture (2x TY, kanamycin, IPTG)
T1 sequence (Q9GZT9 181-402): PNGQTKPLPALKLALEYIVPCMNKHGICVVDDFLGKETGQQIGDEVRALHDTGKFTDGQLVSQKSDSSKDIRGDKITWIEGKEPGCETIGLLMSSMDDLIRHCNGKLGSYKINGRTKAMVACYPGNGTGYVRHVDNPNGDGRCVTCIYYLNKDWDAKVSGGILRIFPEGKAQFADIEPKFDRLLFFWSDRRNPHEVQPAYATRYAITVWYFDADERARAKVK
Protocol: (§1) The site of crosslinking of 3 was investigated using protein variants. First, 3 was incubated with C-terminal truncated PHD2 (PHD2_181–402) and a loop deletion variant (deletion of residues 238–250, PHD2Δ). […] Thus, 3 was incubated with PHD2 constructs truncated at residues 402, 410, 414 and 418. […] Crosslinking experiments with PHD2 R411M implied that R411 is not directly involved in crosslinking (Fig. S11, ESI ^†).
Fig. 3 (A) Non-denaturing ESI-MS data on the flexible loop truncated (top) and C-terminal tail tuncated (bottom) versions of PHD2 in the presence of equimolar Fe(II) and 3 (3 hour incubation, 37 °C. Cone voltage: 200 V). A = [PHD2Δ + Fe], B = [PHD2Δ + Fe + 3], C = [PHD2_181–402 + Fe], D = [PHD2_181–402 + Fe + 3]. (B) MS/MS spectrum of the trypsin derived peptide 403[…]411 crosslinked to 3 identified K408 as the site of crosslinking.
(§2) Fig. S8 Temperature dependence of the rate of crosslinking of 3 with PHD2. PHD2 (20 µM) was incubated with equimolar Fe(II) and 3 in buffer (50 mM Tris, 150 mM NaCl, pH 7.5) at 4, 20 and 37 °C. The ratio of crosslinking after 1, 2, and 4 h was determined by ESI-MS under denaturing conditions (n = 2), error bars represent 1 standard deviation.
(§3) Fig. S9 Ratio of crosslinked PHD2.3 before evaluation of catalytic activity. Labelled peaks correspond to: (A): PHD2, […]

PHD2_181–414 = target: T2, PHD2_181–414 (Homo sapiens, UniProt Q9GZT9); assay: Non-denaturing ESI-MS crosslinking, 414 truncate; conditions: equimolar FeSO4 and compound, 3 h, 37 °C, 200 V
T2 construct: 414 (PHD2_181–414) truncated proteins; His6 (N, cleaved yes); made in house; host or cells: bacterial culture (2x TY, kanamycin, IPTG)
T2 sequence (Q9GZT9 181-414): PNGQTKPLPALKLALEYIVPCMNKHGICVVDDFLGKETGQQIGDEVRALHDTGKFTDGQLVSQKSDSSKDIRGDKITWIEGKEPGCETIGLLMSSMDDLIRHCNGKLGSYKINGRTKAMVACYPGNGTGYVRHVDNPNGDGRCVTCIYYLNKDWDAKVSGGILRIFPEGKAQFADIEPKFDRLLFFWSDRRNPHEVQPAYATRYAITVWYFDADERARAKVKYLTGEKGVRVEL
Protocol: as §1, §2, §3
(§4) Fig. S10 Non-denaturing ESI-MS analysis of (a) PHD2 and its C-terminal truncations (b) PHD2181-418; (c) PHD2181-414;
(§5) (d) PHD2181-410; (e) PHD2181-402 in the presence of equimolar amounts of FeSO4 and 3 after 3 hours incubation at 37 °C in ammonium acetate (15 mM, pH 7.5) at a sample cone voltage of 200V. Peaks present: (A): PHD2.Fe; (B): PHD2181-

[1] = target: T3, PHD2 truncated at residue 410 (Homo sapiens, UniProt Q9GZT9); assay: Non-denaturing ESI-MS crosslinking, 410 truncate; conditions: equimolar FeSO4 and compound, 3 h, 37 °C, 200 V
T3 construct: PHD2 constructs truncated at residues 402, 410, 414 and 418; Both the 418 (PHD2_181–418); His6 (N, cleaved yes); made in house; host or cells: bacterial culture (2x TY, kanamycin, IPTG)
T3 sequence (Q9GZT9 181-410): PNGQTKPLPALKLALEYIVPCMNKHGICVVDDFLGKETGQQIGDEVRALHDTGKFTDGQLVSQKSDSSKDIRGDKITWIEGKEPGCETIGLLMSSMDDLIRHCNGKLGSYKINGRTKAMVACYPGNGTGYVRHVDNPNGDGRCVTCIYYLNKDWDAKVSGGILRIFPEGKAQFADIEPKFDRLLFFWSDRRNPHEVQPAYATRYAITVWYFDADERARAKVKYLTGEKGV
Protocol: as §1, §2, §3, §4, §5

C=CC(=O)Nc1cccc(C(=O)NCC(=O)O)c1O [compound 3]
crosslinking with C-terminally truncated PHD2 (PHD2_181–402): near completely absent
covalent modification of 414 truncate (PHD2_181–414): covalently modified
crosslinking with 410 truncate [1]: Crosslinking did not occur
